# From ChEMBL document CHEMBL6103585, “Construction and activity evaluation of novel CHS inhibitors against fungal infections” (Eur J Med Chem, 2025)
# pIC50, pKd: −log10 of the molar value. The source made the active and inactive calls. The rule behind the calls is not given here.
# Columns and labels:
# Candida albicans [1] = experiment: Antifungal activity against fluconazole-resistant Candida albicans 632 assessed as reduction in fungal growth incubated for 72 hrs by broth microdilution method; assay type: functional
# Candida albicans [2] = experiment: Induction of apoptosis in Candida albicans ATCC SC5314 assessed as early apoptotic cells by V-FITC/PI staining based flow cytometric analysis (reference value: 3.51%); assay type: functional
# Candida albicans [3] = experiment: Antifungal activity against fluconazole-resistant Candida albicans CaR assessed as reduction in fungal growth incubated for 72 hrs by broth microdilution method; assay type: functional
# [4] = Binding affinity to chitin synthase (unknown origin) assessed as dissociation constant by SPR analysis
# Candida albicans [5] = experiment: Antifungal activity against fluconazole-resistant Candida albicans 17# assessed as reduction in fungal growth incubated for 72 hrs by broth microdilution method; assay type: functional
# Candida albicans [6] = experiment: Antifungal activity against fluconazole-resistant Candida albicans 901 assessed as reduction in fungal growth incubated for 72 hrs by broth microdilution method; assay type: functional
# Candida albicans [7] = experiment: Antifungal activity against fluconazole-resistant Candida albicans 904 assessed as reduction in fungal growth incubated for 72 hrs by broth microdilution method; assay type: functional
# Candida albicans [8] = experiment: Antifungal activity against Candida albicans ATCC SC5314 assessed as fungal growth inhibition incubated for 72 hrs by broth microdilution method; assay type: functional
# Candida albicans [9] = experiment: Fungicidal activity against Candida albicans ATCC SC5314 assessed as live cells (reference value: 92%); assay type: functional
# Cryptococcus neoformans = experiment: Antifungal activity against Cryptococcus neoformans ZKCC 2209 assessed as fungal growth inhibition incubated for 72 hrs by broth microdilution method; assay type: functional
# A549 = experiment: Cytotoxicity against human A549 cells incubated for 24 hrs by CCK8 assay; assay type: functional, cell-based; settings: A549, 24 h
# Candida tropicalis = experiment: Antifungal activity against Candida tropicalis ATCC 1369 assessed as fungal growth inhibition incubated for 72 hrs by broth microdilution method; assay type: functional
# Candida albicans [10] = experiment: Induction of apoptosis in Candida albicans ATCC SC5314 assessed as late apoptotic cells by V-FITC/PI staining based flow cytometric analysis (reference value: 0.40%); assay type: functional
# Aspergillus fumigatus = experiment: Antifungal activity against Aspergillus fumigatus KM 8001 assessed as fungal growth inhibition incubated for 72 hrs by broth microdilution method; assay type: functional
# Candida albicans [11] = experiment: Induction of apoptosis in Candida albicans ATCC SC5314 assessed as viable cells by V-FITC/PI staining based flow cytometric analysis (reference value: 93.3%); assay type: functional
# Nakaseomyces glabratus = experiment: Antifungal activity against Candida glabrata assessed as fungal growth inhibition incubated for 72 hrs by broth microdilution method; assay type: functional
# Candida albicans [12] = experiment: Induction of apoptosis in Candida albicans ATCC SC5314 assessed as necrotic cells by V-FITC/PI staining based flow cytometric analysis (reference value: 2.74%); assay type: functional
# Candida albicans [13] = experiment: Fungicidal activity against Candida albicans ATCC SC5314 assessed as dead cells (reference value: 8%); assay type: functional
# HeLa = experiment: Cytotoxicity against human HeLa cells incubated for 24 hrs by CCK8 assay; assay type: functional, cell-based
# Candida albicans [14] = experiment: In vivo antifungal activity against Candida albicans 901 infected in mouse model assessed as decrease in IL-2 protein expression level at 5 microg/g, iv pre-infected with fungi by intravenous injection followed by compound administration and measured on day 8 by Western blotting analysis; assay type: functional, organism-based; settings: dose 5.0 µg/g, time 8.0 day
# Candida albicans [15] = experiment: In vivo antifungal activity against Candida albicans 901 infected in mouse model assessed as body weight gain at 5 microg/g, iv pre-infected with fungi by intravenous injection followed by compound administration and measured on day 8; assay type: functional, organism-based; settings: dose 5.0 µg/g, time 8.0 day
# Candida albicans [16] = experiment: In vivo antifungal activity against Candida albicans 901 infected in mouse model assessed as decrease in PD-L1 protein expression level at 5 microg/g, iv pre-infected with fungi by intravenous injection followed by compound administration and measured on day 8 by Western blotting analysis; assay type: functional, organism-based; settings: dose 5.0 µg/g, time 8.0 day
# [17] = Inhibition of chitin synthase extracted from Candida tropicalis ATCC 1369 using UDP-GlcNAc as substrate incubated for 1 hrs
# Candida albicans [18] = experiment: In vivo antifungal activity against Candida albicans 901 infected in mouse model assessed as decrease in IFN-gamma protein expression level at 5 microg/g, iv pre-infected with fungi by intravenous injection followed by compound administration and measured on day 8 by Western blotting analysis; assay type: functional, organism-based; settings: dose 5.0 µg/g, time 8.0 day
# Candida albicans [19] = experiment: In vivo antifungal activity against Candida albicans 901 infected in mouse model assessed as decrease in IDO protein expression level at 5 microg/g, iv pre-infected with fungi by intravenous injection followed by compound administration and measured on day 8 by Western blotting analysis; assay type: functional, organism-based; settings: dose 5.0 µg/g, time 8.0 day
# Candida albicans [20] = experiment: In vivo antifungal activity against Candida albicans 901 infected in mouse model assessed as expansion of alveolar spaces in lung at 5 microg/g, iv pre-infected with fungi by intravenous injection followed by compound administration and measured on day 8 by H and E staining based analysis; assay type: functional, organism-based; settings: dose 5.0 µg/g, time 8.0 day
# Candida albicans [21] = experiment: In vivo antifungal activity against Candida albicans 901 infected in mouse model assessed as reduction in genetic material content in lung at 5 microg/g, iv pre-infected with fungi by intravenous injection followed by compound administration and measured on day 8 by H and E staining based analysis; assay type: functional, organism-based; settings: dose 5.0 µg/g, time 8.0 day
# Candida albicans [22] = experiment: Induction of ROS generation in Candida albicans ATCC SC5314 assessed as increase in fluorescence intensity incubated for 12 hrs by fluorescence microscopic analysis; assay type: functional, organism-based
structure (smiles),measurement,setting,value
O=C(NCC(=O)N1CCN(c2ccccc2)CC1)c1nc2ccc(Cl)cc2c(=O)[nH]1,MIC50,Candida albicans [1],8 mg/L
same,Activity,Candida albicans [2],13.2%
same,MIC50,Candida albicans [3],4 mg/L
same,pKd,[4],7.22
same,MIC50,Candida albicans [5],2 mg/L
same,MIC50,Candida albicans [6],8 mg/L
same,MIC50,Candida albicans [7],4 mg/L
same,MIC50,Candida albicans [8],0.5 mg/L
same,Activity,Candida albicans [9],22%
same,MIC50,Cryptococcus neoformans,2 mg/L
same,pIC50,A549,< 4.30
same,MIC50,Candida tropicalis,1 mg/L
same,Activity,Candida albicans [10],7.3%
same,MIC50,Aspergillus fumigatus,4 mg/L
same,Activity,Candida albicans [11],62.9%
same,MIC50,Nakaseomyces glabratus,1 mg/L
same,Activity,Candida albicans [12],16.6%
same,Activity,Candida albicans [13],78%
same,pIC50,HeLa,< 4.30
O=C(CNC(=O)c1nc2ccc(Cl)cc2c(=O)[nH]1)Nc1cccnc1,MIC50,Candida albicans [8],8 mg/L
same,MIC50,Cryptococcus neoformans,8 mg/L
same,MIC50,Candida tropicalis,8 mg/L
same,MIC50,Aspergillus fumigatus,≥ 16 mg/L
same,MIC50,Nakaseomyces glabratus,4 mg/L
NC(=O)OC[C@H](O)[C@@H](O)[C@H](N)C(=O)N[C@H](C(=O)O)[C@H]1O[C@@H](n2cc(CO)c(=O)[nH]c2=O)[C@H](O)[C@@H]1O [POLYOXIN B],MIC50,Candida albicans [1],4 mg/L
same,Activity,Candida albicans [2],4.93%
same,MIC50,Candida albicans [3],8 mg/L
same,Activity,Candida albicans [14],Active
same,pKd,[4],8.25
same,Activity,Candida albicans [15],Active
same,MIC50,Candida albicans [5],2 mg/L
same,Activity,Candida albicans [16],Active
same,pIC50,[17],4.59
same,MIC50,Candida albicans [6],4 mg/L
same,MIC50,Candida albicans [7],8 mg/L
same,MIC50,Candida albicans [8],4 mg/L
same,Activity,Candida albicans [18],Active
same,Activity,Candida albicans [9],19%
same,Activity,Candida albicans [19],Active
same,MIC50,Cryptococcus neoformans,4 mg/L
same,Activity,Candida albicans [20],Active
same,pIC50,A549,< 4.30
same,MIC50,Candida tropicalis,8 mg/L
same,Activity,Candida albicans [21],Active
same,Activity,Candida albicans [10],4.5%
same,Activity,Candida albicans [22],Active
same,MIC50,Aspergillus fumigatus,≥ 16 mg/L
same,Activity,Candida albicans [11],57.5%
same,MIC50,Nakaseomyces glabratus,2 mg/L
same,Activity,Candida albicans [12],33%
same,Activity,Candida albicans [13],81%
same,pIC50,HeLa,< 4.30
CC(=O)N1CCN(C(=O)CNC(=O)c2nc3ccc(Cl)cc3c(=O)[nH]2)CC1,MIC50,Candida albicans [8],1 mg/L
same,MIC50,Cryptococcus neoformans,≥ 16 mg/L
same,MIC50,Candida tropicalis,1 mg/L
same,MIC50,Aspergillus fumigatus,8 mg/L
same,MIC50,Nakaseomyces glabratus,2 mg/L
C[C@@H](c1ncncc1F)[C@](O)(Cn1cncn1)c1ccc(F)cc1F,Activity,Candida albicans [20],inactive
OC(Cn1cncn1)(Cn1cncn1)c1ccc(F)cc1F [FLUCONAZOLE],MIC50,Candida albicans [1],≥ 16 mg/L
same,MIC50,Candida albicans [3],≥ 16 mg/L
same,MIC50,Candida albicans [5],≥ 16 mg/L
same,MIC50,Candida albicans [6],≥ 16 mg/L
same,MIC50,Candida albicans [7],≥ 16 mg/L
same,MIC50,Candida albicans [8],1 mg/L
same,MIC50,Cryptococcus neoformans,2 mg/L
same,MIC50,Candida tropicalis,0.5 mg/L
same,MIC50,Aspergillus fumigatus,4 mg/L
same,MIC50,Nakaseomyces glabratus,1 mg/L
O=C(NCC(=O)N1CCN(C(=O)c2ccccc2)CC1)c1nc2ccc(Cl)cc2c(=O)[nH]1,MIC50,Candida albicans [1],4 mg/L
same,Activity,Candida albicans [2],11.1%
same,MIC50,Candida albicans [3],2 mg/L
same,pKd,[4],8.71
same,MIC50,Candida albicans [5],4 mg/L
same,pIC50,[17],4.71
same,MIC50,Candida albicans [6],8 mg/L
same,MIC50,Candida albicans [7],2 mg/L
same,MIC50,Candida albicans [8],0.5 mg/L
same,Activity,Candida albicans [9],6%
same,MIC50,Cryptococcus neoformans,4 mg/L
same,pIC50,A549,< 4.30
same,MIC50,Candida tropicalis,0.5 mg/L
same,Activity,Candida albicans [10],12.1%
same,Activity,Candida albicans [22],Active
same,MIC50,Aspergillus fumigatus,2 mg/L
same,Activity,Candida albicans [11],53.2%
same,MIC50,Nakaseomyces glabratus,1 mg/L
same,Activity,Candida albicans [12],23.6%
same,Activity,Candida albicans [13],94%
same,pIC50,HeLa,< 4.30
O=C(CNC(=O)c1nc2ccc(Cl)cc2c(=O)[nH]1)NCc1ccccc1,pIC50,[17],4.52
same,MIC50,Candida albicans [8],4 mg/L
same,MIC50,Cryptococcus neoformans,≥ 16 mg/L
same,MIC50,Candida tropicalis,2 mg/L
same,MIC50,Aspergillus fumigatus,8 mg/L
same,MIC50,Nakaseomyces glabratus,8 mg/L
